# Laboratory results reported in US10233174B2 (THERAVANCE BIOPHARMA R&D IP, LLC, priority 2017, dated 2019).
# Target: β-glucuronidase (Escherichia coli, UniProt P05804)
# Assay: Assay 11: Release of H2S and Tofacitinib (incubation with β-glucuronidase and monobromobimane)
# Assay type: in vitro ADME
# Conditions: 50 μM compound 1, β-glucuronidase 100 units/mL, MBB 100 μM, pH 7.4, 37° C.
# Procedure: The method used to detect H2S was previously described in Tan et al., Nature Scientific Reports, 2017, 7:46278, DOI: 10.1038/srep46278.
# Compound 1 (50 μM) was incubated with β-glucuronidase (100 units/mL) and monobromobimane (MBB, 100 μM) in potassium phosphate buffer pH 7.4 (100 mM) for 60 min at 37° C. In addition, incubations were carried out with and without a) β-glucuronidase and b) MBB as negative control. Incubation of SN38-Glucuronide was also carried out with β-glucuronidase as a positive control for β-glucuronidase activity. The reactions were terminated at 60 min by the addition of three volumes of ice-cold acetonitrile to the incubation mixture. The incubation samples were centrifuged (4° C., 2200×g, 10 minutes) and the supernatants were transferred to amber HLPC vials. All samples were stored at 4° C. until the analysis. The samples were analyzed using a Thermo Orbitrap LC-MS/MS system.
# H2S was trapped using monobromobimane (MBB) to form sulfide dibimane (SDB).
# Chain of β-glucuronidase (P05804 whole entry): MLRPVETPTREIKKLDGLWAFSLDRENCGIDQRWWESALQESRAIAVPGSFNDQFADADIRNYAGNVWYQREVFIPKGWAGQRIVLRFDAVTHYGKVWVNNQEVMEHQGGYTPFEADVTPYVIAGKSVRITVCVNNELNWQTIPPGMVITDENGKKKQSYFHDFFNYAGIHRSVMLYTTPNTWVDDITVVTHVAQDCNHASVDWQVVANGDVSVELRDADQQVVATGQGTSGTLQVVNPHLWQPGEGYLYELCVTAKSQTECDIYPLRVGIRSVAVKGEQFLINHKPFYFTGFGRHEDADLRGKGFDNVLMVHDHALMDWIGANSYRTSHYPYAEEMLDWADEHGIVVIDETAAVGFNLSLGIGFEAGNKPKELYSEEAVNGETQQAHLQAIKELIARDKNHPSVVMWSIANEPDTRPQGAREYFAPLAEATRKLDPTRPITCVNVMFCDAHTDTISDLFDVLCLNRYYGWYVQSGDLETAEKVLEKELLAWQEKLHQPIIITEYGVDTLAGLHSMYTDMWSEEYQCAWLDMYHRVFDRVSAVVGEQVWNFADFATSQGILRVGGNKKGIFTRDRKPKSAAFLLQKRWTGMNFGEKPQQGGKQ
compound,measurement,value
"C[C@@H]1CCN(C(=O)CC#N)C[C@@H]1N(C)c1ncnc2c1ccn2C(=O)N(C)CCN(C)C(=S)OCc1ccc(O[C@@H]2O[C@H](C(=O)O)[C@@H](O)[C@H](O)[C@H]2O)c([N+](=O)[O-])c1 [Compound 1, (2S,3S,4S,5R,6S)-6-(4-((((2-(4-(((3R,4R)-1-(2-cyanoacetyl)-4-methylpiperidin-3-yl)(methyl)amino)-N-methyl-7H-pyrrolo[2,3-d]pyrimidine-7-carboxamido)ethyl)(methyl)carbamothioyl)oxy)methyl)-2-nitrophenoxy)-3,4,5-trihydroxytetrahydro-2H-pyran-2-carboxylic acid]",% (MS Peak Area) (60 min) of compound 1 (Parent) remaining,0%
